Assays:
Assay in all cases: relative viability (nuclei count vs DMSO), 5 days (fraction); higher = more cells survive
[1] = compound: C/C(=N\NC(=S)N1CCC1)/C2=CC=CC=N2 + N=C(N)NC(=N)NCCc1ccccc1 [Phenformin] (partner 250 µM)
Outline: (§1)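 Relative viability was taken as the ratio of nuclei in treated wells to nuclei in vehicle wells. Lung cancer cell lines in 1536-well plates received compounds by pin tool one day after seeding, either one drug alone or a fixed anchor-drug dose plus five library-drug doses (not always all listed) in √10 steps. Nuclei were counted on 4× images after 5 days of treatment, and values are medians of duplicate plates.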

[2] = compound: C/C(=N\NC(=S)N1CCC1)/C2=CC=CC=N2 + Nc1nc2[nH]cc(CCc3ccc(C(=O)N[C@@H](CCC(=O)O)C(=O)O)cc3)c2c(=O)[nH]1 [Pemetrexed] (partner 0.2 µM)
Outline: as §1

[3] = compound: C/C(=N\NC(=S)N1CCC1)/C2=CC=CC=N2 + CC(=O)Nc1cccc(-n2c(=O)n(C3CC3)c(=O)c3c(Nc4ccc(I)cc4F)n(C)c(=O)c(C)c32)c1 [Trametinib] (partner 0.02 µM)
Outline: as §1

[4] = compound: C/C(=N\NC(=S)N1CCC1)/C2=CC=CC=N2 + CC1(C)CCC(c2ccc(Cl)cc2)=C(CN2CCN(c3ccc(C(=O)NS(=O)(=O)c4ccc(N[C@H](CCN5CCOCC5)CSc5ccccc5)c(S(=O)(=O)C(F)(F)F)c4)cc3)CC2)C1 [Navitoclax] (partner 0.5 µM)
Outline: as §1

LXF-289
relative viability ([1]; first compound 0.05 µM): 0.22 | relative viability ([1]; first compound 0.1581 µM): 0.203 | relative viability ([1]; first compound 0.5 µM): 0.202 | relative viability ([1]; first compound 1.581 µM): 0.2 | relative viability ([1]; first compound 5 µM): 0.0793 | relative viability ([2]; first compound 0.05 µM): 0.254 | relative viability ([2]; first compound 0.1581 µM): 0.203 | relative viability ([2]; first compound 0.5 µM): 0.199 | relative viability ([2]; first compound 1.581 µM): 0.17 | relative viability ([2]; first compound 5 µM): 0.104 | relative viability ([3]; first compound 0.05 µM): 0.284 | relative viability ([3]; first compound 0.1581 µM): 0.553 | relative viability ([3]; first compound 0.5 µM): 0.206 | relative viability ([3]; first compound 1.581 µM): 0.221 | relative viability ([3]; first compound 5 µM): 0.176 | relative viability ([4]; first compound 0.05 µM): 0.431 | relative viability ([4]; first compound 0.1581 µM): 0.361 | relative viability ([4]; first compound 0.5 µM): 0.248 | relative viability ([4]; first compound 1.581 µM): 0.193 | relative viability ([4]; first compound 5 µM): 0.108

UMC-11
relative viability ([1]; first compound 0.05 µM): 0.202 | relative viability ([1]; first compound 0.1581 µM): 0.19 | relative viability ([1]; first compound 0.5 µM): 0.207 | relative viability ([1]; first compound 1.581 µM): 0.185 | relative viability ([1]; first compound 5 µM): 0.168 | relative viability ([2]; first compound 0.05 µM): 0.221 | relative viability ([2]; first compound 0.1581 µM): 0.169 | relative viability ([2]; first compound 0.5 µM): 0.159 | relative viability ([2]; first compound 1.581 µM): 0.141 | relative viability ([2]; first compound 5 µM): 0.138 | relative viability ([3]; first compound 0.05 µM): 0.164 | relative viability ([3]; first compound 0.1581 µM): 0.164 | relative viability ([3]; first compound 0.5 µM): 0.159 | relative viability ([3]; first compound 1.581 µM): 0.113 | relative viability ([3]; first compound 5 µM): 0.129 | relative viability ([4]; first compound 0.05 µM): 0.16 | relative viability ([4]; first compound 0.1581 µM): 0.138 | relative viability ([4]; first compound 0.5 µM): 0.119 | relative viability ([4]; first compound 1.581 µM): 0.116 | relative viability ([4]; first compound 5 µM): 0.106

LC-2-ad
relative viability ([1]; first compound 0.05 µM): 0.29 | relative viability ([1]; first compound 0.1581 µM): 0.277 | relative viability ([1]; first compound 0.5 µM): 0.259 | relative viability ([1]; first compound 1.581 µM): 0.19 | relative viability ([1]; first compound 5 µM): 0.226 | relative viability ([2]; first compound 0.05 µM): 0.202 | relative viability ([2]; first compound 0.1581 µM): 0.218 | relative viability ([2]; first compound 0.5 µM): 0.217 | relative viability ([2]; first compound 1.581 µM): 0.217 | relative viability ([2]; first compound 5 µM): 0.192 | relative viability ([3]; first compound 0.05 µM): 0.238 | relative viability ([3]; first compound 0.1581 µM): 0.222 | relative viability ([3]; first compound 0.5 µM): 0.223 | relative viability ([3]; first compound 1.581 µM): 0.232 | relative viability ([3]; first compound 5 µM): 0.231 | relative viability ([4]; first compound 0.05 µM): 0.0933 | relative viability ([4]; first compound 0.1581 µM): 0.0992 | relative viability ([4]; first compound 0.5 µM): 0.0713 | relative viability ([4]; first compound 1.581 µM): 0.0966 | relative viability ([4]; first compound 5 µM): 0.121

SK-MES-1
relative viability ([1]; first compound 0.05 µM): 0.219 | relative viability ([1]; first compound 0.1581 µM): 0.233 | relative viability ([1]; first compound 0.5 µM): 0.197 | relative viability ([1]; first compound 1.581 µM): 0.175 | relative viability ([1]; first compound 5 µM): 0.173 | relative viability ([2]; first compound 0.05 µM): 0.248 | relative viability ([2]; first compound 0.1581 µM): 0.258 | relative viability ([2]; first compound 0.5 µM): 0.23 | relative viability ([2]; first compound 1.581 µM): 0.177 | relative viability ([2]; first compound 5 µM): 0.207 | relative viability ([3]; first compound 0.05 µM): 0.277 | relative viability ([3]; first compound 0.1581 µM): 0.236 | relative viability ([3]; first compound 0.5 µM): 0.245 | relative viability ([3]; first compound 1.581 µM): 0.213 | relative viability ([3]; first compound 5 µM): 0.246 | relative viability ([4]; first compound 0.05 µM): 0.186 | relative viability ([4]; first compound 0.1581 µM): 0.21 | relative viability ([4]; first compound 0.5 µM): 0.18 | relative viability ([4]; first compound 1.581 µM): 0.13 | relative viability ([4]; first compound 5 µM): 0.185

A-427
relative viability ([1]; first compound 0.05 µM): 0.13 | relative viability ([1]; first compound 0.1581 µM): 0.142 | relative viability ([1]; first compound 0.5 µM): 0.134 | relative viability ([1]; first compound 1.581 µM): 0.121 | relative viability ([1]; first compound 5 µM): 0.138 | relative viability ([2]; first compound 0.05 µM): 0.191 | relative viability ([2]; first compound 0.1581 µM): 0.209 | relative viability ([2]; first compound 0.5 µM): 0.195 | relative viability ([2]; first compound 1.581 µM): 0.151 | relative viability ([2]; first compound 5 µM): 0.188 | relative viability ([3]; first compound 0.05 µM): 0.226 | relative viability ([3]; first compound 0.1581 µM): 0.215 | relative viability ([3]; first compound 0.5 µM): 0.189 | relative viability ([3]; first compound 1.581 µM): 0.185 | relative viability ([3]; first compound 5 µM): 0.178 | relative viability ([4]; first compound 0.05 µM): 0.182 | relative viability ([4]; first compound 0.1581 µM): 0.664 | relative viability ([4]; first compound 0.5 µM): 0.141 | relative viability ([4]; first compound 1.581 µM): 0.125 | relative viability ([4]; first compound 5 µM): 0.133

NCI-H322M
relative viability ([1]; first compound 0.05 µM): 0.332 | relative viability ([1]; first compound 0.1581 µM): 0.375 | relative viability ([1]; first compound 0.5 µM): 0.249 | relative viability ([1]; first compound 1.581 µM): 0.255 | relative viability ([1]; first compound 5 µM): 0.311 | relative viability ([2]; first compound 0.05 µM): 0.327 | relative viability ([2]; first compound 0.1581 µM): 0.391 | relative viability ([2]; first compound 0.5 µM): 0.556 | relative viability ([2]; first compound 1.581 µM): 0.327 | relative viability ([2]; first compound 5 µM): 0.404 | relative viability ([3]; first compound 0.05 µM): 0.451 | relative viability ([3]; first compound 0.1581 µM): 0.45 | relative viability ([3]; first compound 0.5 µM): 0.424 | relative viability ([3]; first compound 1.581 µM): 0.43 | relative viability ([3]; first compound 5 µM): 0.423 | relative viability ([4]; first compound 0.05 µM): 0.268 | relative viability ([4]; first compound 0.1581 µM): 1.21 | relative viability ([4]; first compound 0.5 µM): 0.208 | relative viability ([4]; first compound 1.581 µM): 0.281 | relative viability ([4]; first compound 5 µM): 0.277

HCC-366
relative viability ([1]; first compound 0.05 µM): 0.0354 | relative viability ([1]; first compound 0.1581 µM): 0.0736 | relative viability ([1]; first compound 0.5 µM): 0.0328 | relative viability ([1]; first compound 1.581 µM): 0.0375 | relative viability ([1]; first compound 5 µM): 0.0286 | relative viability ([2]; first compound 0.05 µM): 0.0318 | relative viability ([2]; first compound 0.1581 µM): 0.0443 | relative viability ([2]; first compound 0.5 µM): 0.0286 | relative viability ([2]; first compound 1.581 µM): 0.0295 | relative viability ([2]; first compound 5 µM): 0.0319 | relative viability ([3]; first compound 0.05 µM): 0.0818 | relative viability ([3]; first compound 0.1581 µM): 0.0309 | relative viability ([3]; first compound 0.5 µM): 0.0211 | relative viability ([3]; first compound 1.581 µM): 0.0256 | relative viability ([3]; first compound 5 µM): 0.025 | relative viability ([4]; first compound 0.05 µM): 0.0139 | relative viability ([4]; first compound 0.1581 µM): 0.0237 | relative viability ([4]; first compound 0.5 µM): 0.0184 | relative viability ([4]; first compound 1.581 µM): 0.0179 | relative viability ([4]; first compound 5 µM): 0.0172

NCI-H1975
relative viability ([1]; first compound 0.05 µM): 0.187 | relative viability ([1]; first compound 0.1581 µM): 0.187 | relative viability ([1]; first compound 0.5 µM): 0.159 | relative viability ([1]; first compound 1.581 µM): 0.12 | relative viability ([1]; first compound 5 µM): 0.133 | relative viability ([2]; first compound 0.05 µM): 0.133 | relative viability ([2]; first compound 0.1581 µM): 0.144 | relative viability ([2]; first compound 0.5 µM): 0.141 | relative viability ([2]; first compound 1.581 µM): 0.155 | relative viability ([2]; first compound 5 µM): 0.145 | relative viability ([3]; first compound 0.05 µM): 0.143 | relative viability ([3]; first compound 0.1581 µM): 0.118 | relative viability ([3]; first compound 0.5 µM): 0.105 | relative viability ([3]; first compound 1.581 µM): 0.109 | relative viability ([3]; first compound 5 µM): 0.119 | relative viability ([4]; first compound 0.05 µM): 0.169 | relative viability ([4]; first compound 0.1581 µM): 0.143 | relative viability ([4]; first compound 0.5 µM): 0.152 | relative viability ([4]; first compound 1.581 µM): 0.163 | relative viability ([4]; first compound 5 µM): 0.168
